In ChEMBL document CHEMBL3639134, “Diphenylmethane derivatives as SGLT2 inhibitors” (2015):

Target: T1, Sodium/glucose cotransporter 2 (Homo sapiens, UniProt P31639)
T1 sequence (P31639 whole entry): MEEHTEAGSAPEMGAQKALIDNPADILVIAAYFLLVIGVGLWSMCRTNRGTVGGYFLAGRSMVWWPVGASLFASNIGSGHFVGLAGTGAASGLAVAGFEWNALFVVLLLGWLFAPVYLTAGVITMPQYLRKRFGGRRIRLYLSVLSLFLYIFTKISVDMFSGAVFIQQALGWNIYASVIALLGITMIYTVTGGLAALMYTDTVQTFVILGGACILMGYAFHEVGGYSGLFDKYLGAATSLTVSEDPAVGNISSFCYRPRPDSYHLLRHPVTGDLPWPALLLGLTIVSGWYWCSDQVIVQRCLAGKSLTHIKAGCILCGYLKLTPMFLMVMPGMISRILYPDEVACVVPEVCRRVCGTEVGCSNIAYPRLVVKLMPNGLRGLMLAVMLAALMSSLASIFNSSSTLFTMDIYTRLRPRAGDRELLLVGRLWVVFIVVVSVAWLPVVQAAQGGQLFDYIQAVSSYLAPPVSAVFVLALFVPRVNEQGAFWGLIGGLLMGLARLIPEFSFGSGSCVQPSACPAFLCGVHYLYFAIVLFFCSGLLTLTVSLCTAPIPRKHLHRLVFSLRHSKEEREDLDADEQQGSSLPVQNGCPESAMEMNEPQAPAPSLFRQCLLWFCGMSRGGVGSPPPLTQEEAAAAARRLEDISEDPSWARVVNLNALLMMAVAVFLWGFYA
Test: Inhibition Assay: For sodium-dependent glucose transport assay, cells expressing hSGLT2 were seeded into a 96-well culture plate at a density of 5x10^4 cells/well in RPMI medium 1640 containing 10% fetal bovine serum. The cells were used 1 day after plating. They were incubated in pretreatment buffer (10 mM HEPES, 5 mM Tris, 140 mM choline chloride, 2 mM KCl, 1 mM CaCl2, and 1 mM MgCl2, pH 7.4) at 37 C. for 10 min. They were then incubated in uptake buffer (10 mM HEPES, 5 mM Tris, 140 mM NaCl, 2 mM KCl, 1 mM CaCl2, 1 mM MgCl2, and 1 mM 14C-nonlabeled AMG pH 7.4) containing 14C-labeled AMG (8 uM) and the inventive compound or dimethyl sulfoxide (DMSO) vehicle at 37 C. for 2 h. Cells were washed twice with washing buffer (pretreatment buffer containing 10 mM AMG at room temperature) and then the radioactivity was measured using a liquid scintillation counter. IC50 was determined by nonlinear regression analysis using GraphPad PRISM [Katsuno, K. et al. J. Pharmacol. Exp. Ther. 2007, 320, 323-330].

IC50 [nM] | SMILES
1.08 | CCOc1ccc(Cc2cc([C@@H]3O[C@H](CO)[C@@H](O)[C@H](O)[C@H]3O)c3c(c2Cl)OCO3)cc1
2.42 | CCOc1ccc(Cc2cc([C@@H]3O[C@H](CO)[C@@H](O)[C@H](O)[C@H]3O)c3c(c2Cl)NCCO3)cc1

Further lines, the molecule ahead of its results:

SMILES | IC50 [nM]
CCOc1ccc(Cc2cc([C@@H]3O[C@H](CO)[C@@H](O)[C@H](O)[C@H]3O)c3c(c2C2CC2)OCC3)cc1 | 13.8
OC[C@H]1O[C@@H](c2cc(Cc3ccc(N4CCC4)cc3)c(Cl)c3c2CCO3)[C@H](O)[C@@H](O)[C@@H]1O | 3.49
OC[C@H]1O[C@@H](c2cc(Cc3ccc(N4CCC4)cc3)c(Cl)c3c2CCC3)[C@H](O)[C@@H](O)[C@@H]1O | 1.75
